Assay results reported in patent US20250032506A1, “GLUCOCORTICOID RECEPTOR BLOCKADE WITH MIFEPRISTONE TO SENSITIZE PANCREATIC CANCER TO IMMUNOTHERAPY” (BOARD OF REGENTS, THE UNIVERSITY OF TEXAS SYSTEM, priority 2021, published 2025).

Legend:
[1] = test system: tumors formed by KPC cell lines (HY24409, HY24160); assay: Tumor growth in immunodeficient NSG mice implanted with KPC cell lines; format: in vivo, mouse; details: mifepristone oral gavage 60 mg kg-1, twice every 3 days
Procedure: (§1) Orthotopic pancreatic tumor size was determined by MRI. Subcutaneous tumor size was measured with a caliper. […] Animal body weight was measured throughout the study.

[2] = test system: orthotopic HY19636 tumors; assay: Female C57BL/6 mice bearing orthotopic HY19636 tumors; format: in vivo, mouse
Procedure: as §1

HY24409 cells [3] = assay: qPCR and flow cytometry of PD-L1, MHC-I and B2M in HY24409 cells; format: cell-based, mouse; details: MIFE 20 μM, 48 h
Procedure: (§2) (See Bardeesy, N., et al. supra). The human PDAC cell lines SU86.86 ([…]), SW1990 ([…]), BXPC-3 ([…]), Miapaca-2 ([…]), Capan-1 ([…]), ASPC-1 ([…]), Hs766T ([…]), Colo357/FG ([…]), L3.6PL ([…]), Panc28 ([…]), Capan-2 ([…]), CF-Pac-1 ([…]), Panc3 (sex unknown), Panc1 ([…]), Panc48 (sex unknown), and HPAC ([…]) were from Mien-Chie Hung's lab stock. […] The BXPC-3, Miapaca-2, Capan-1, ASPC-1, Colo357/FG, L3.6PL, Panc28, Capan-2, CF-Pac-1, Panc3, Panc1, Panc48, and HPAC cell lines were cultured in DMEM/F-12 (Corning, 10-092-CV) supplemented with 10% FBS and 1% penicillin/streptomycin. Cells were grown in a humidified incubator with 5% CO2 at 37° C., and low-passage stocks were maintained in a centralized lab cell bank. Short tandem repeat profiling and mycoplasma tests were done by the Cytogenetics and Cell Authentication Core at MD Anderson Cancer Center.

SW1990 cells = assay: qPCR, immunoblotting and flow cytometry of PD-L1 and MHC-I pathway expression in SW1990 cells; format: cell-based, human
Procedure: as §2
Membranes were blocked with 10% non-fat milk in TBST and incubated with the primary antibody at 4° C. overnight, followed by incubation with the secondary antibody conjugated with horseradish peroxidase (HRP).

[4] = test system: orthotopic HY24409 tumors; assay: CyTOF, flow cytometry, qPCR and multiplex immunofluorescent staining of orthotopic HY24409 tumors; format: in vivo, mouse
Procedure: Cancer Discov 10, 1374-1387 (2020). […] CyTOF data were analyzed by FlowJo and Cytobank.
(§3) Immunity 54, 1561-1577 e1567 (2021).

HY19636 cells = assay: qPCR and flow cytometry of PD-L1, MHC-I and B2M in HY19636 cells; format: cell-based, mouse; details: MIFE 20 μM, 48 h
Source text: The male PDAC cell lines HY24409 and HY24160 and the female PDAC cell line HY19636 were established from KPC mice (p48-Cre; Kras^LSL-G12D/+; Trp53^loxP/+) that were backcrossed to a C57BL/6 background (purity: ˜ 98%). (See Bardeesy, N., et al. supra). The human PDAC cell lines SU86.86 ([…]), SW1990 ([…]), BXPC-3 ([…]), Miapaca-2 ([…]), Capan-1 ([…]), ASPC-1 ([…]), Hs766T ([…]), Colo357/FG ([…]), L3.6PL ([…]), Panc28 ([…]), Capan-2 ([…]), CF-Pac-1 ([…]), Panc3 (sex unknown), Panc1 ([…]), Panc48 (sex unknown), and HPAC ([…]) were from Mien-Chie Hung's lab stock. The HY24409, HY24160, HY19636, SU86.86, SW1990, and Hs766T cell lines were cultured in RPMI 1640 (Corning, 10-041-CV) supplemented with 10% fetal bovine serum (FBS) (Gibco, 10438-034) and 1% penicillin/streptomycin (Sigma, P4333). The BXPC-3, Miapaca-2, Capan-1, ASPC-1, Colo357/FG, L3.6PL, Panc28, Capan-2, CF-Pac-1, Panc3, Panc1, Panc48, and HPAC cell lines were cultured in DMEM/F-12 (Corning, 10-092-CV) supplemented with 10% FBS and 1% penicillin/streptomycin. Cells were grown in a humidified incubator with 5% CO2 at 37° C., and low-passage stocks were maintained in a centralized lab cell bank. Short tandem repeat profiling and mycoplasma tests were done by the Cytogenetics and Cell Authentication Core at MD Anderson Cancer Center.
as §3

[5] = test system: orthotopic HY24409 tumors; assay: Orthotopic HY24409 pancreatic tumors in C57BL/6 mice; format: in vivo, mouse
Procedure: as §1

HY24409 cells [6] = assay: Cell cycle analysis after double thymidine block; format: cell-based, mouse; details: flow cytometry; mifepristone 20 μM, 48 h pretreatment; unsynchronized and after release from double thymidine block
Procedure: Cell cycle analysis Cells were seeded in 6-well plates (2×10^5 cells per well) and treated with 2 mM thymidine (Sigma-Aldrich, T9250-1G) for 18 hours, fresh medium for 9 hours, and 2 mM thymidine again for 17 hours to arrest cells in G1/S phases for synchronization. Released cells were collected at the indicated time points by centrifugation, washed in cold PBS, resuspended in 1 ml of 70% ethanol, and stored at −20° C. overnight. Cells were then collected by centrifugation and washed two times with cold PBS. To ensure that only DNA was stained, cells were treated with 50 μl of 100 μg ml^−1 RNase (New England Biolabs, T3018L), and added 425 μl of cell staining buffer (2% FBS in PBS) and 25 μl of propidium iodide solution (BioLegend, 421301). After staining, samples were analyzed by flow cytometry. Cells were gated for PI staining and the cells in G1, S, and G2/M phases were quantitated using FlowJo software.

[7] = CyTOF, orthotopic HY24409 tumors, vs vehicle or control shRNA
[8] = flow cytometric analysis, HY24409 tumors

`CC#C[C@]1(O)CC[C@H]2[C@@H]3CCC4=CC(=O)CCC4=C3[C@@H](c3ccc(N(C)C)cc3)C[C@@]21C` [mifepristone] was tested, and the “growth of tumors formed by KPC cell lines” value [1] was “neither mifepristone treatment (FIGS. 11A-11J) nor shRNA-mediated GR knockdown (FIGS. 11K-11N) affected the growth of tumors”, the body weight [2] was “without reducing body weight” and the tumor growth [2] was “markedly inhibited tumor growth”. For the same compound, the “sensitivity of tumors to dual ICB” value ([2]; mifepristone with dual ICB) was “rendered sensitivity to dual ICB”, the “surface PD-L1 levels” value (HY24409 cells [3]; flow cytometry) was “decreased” and the “surface protein levels of MHC-I (H-2K^b) and B2M” value (HY24409 cells [3]; flow cytometry) was “increased”. The “MHC-I and B2M mRNA levels” value (HY24409 cells [3]; qPCR) was “increase”, the “PD-L1 mRNA levels” value (HY24409 cells [3]; qPCR) was “decrease” and the PD-L1 protein (SW1990 cells; Western blot and flow cytometric analysis, MIFE 72 h) was “downregulated”. The “MHC-I and B2M proteins” value (SW1990 cells; Western blot and flow cytometry, MIFE 72 h) was “upregulation”, the “mRNA levels of components in the MHC-I pathway, including HLA-A, HLA-B, HLA-C, B2M, SEC61B, and SEC61G” value (SW1990 cells; qPCR, MIFE 20 μM, 72 h) was “increased” and the “mRNA levels of immune checkpoint ligands, including PD-L1, CD47, TDO, and SIGLEC15” value (SW1990 cells; qPCR, MIFE 20 μM, 72 h) was “decreased”. For the same compound, the “abundance of CD4+ T cells, regulatory T cells, natural killer cells, B cells, dendritic cells, macrophages, and myeloid-derived suppressor cells” value ([4]; CyTOF, orthotopic HY24409 tumors) was “No significant change”, the “increase in percentage of granzyme B+ CTLs” value [4, 7] was 1.6 fold and the “increase in percentage of tumor-infiltrating CD8+ cells” value [4, 7] was 1.9 fold. The “cell-surface MHC-I (H-2K^b) and B2M levels in pancreatic tumors” value [4, 8] was “higher”, the “cell-surface PD-L1 levels in pancreatic tumors” value [4, 8] was “lower” and the “expression levels of intracellular TNFα, IFNγ, and IL-2 in tumor-associated CD8+ cells” value ([4]; flow cytometry after ex vivo stimulation with PMA and ionomycin, HY24409 tumors) was “significantly increased”. The “surface levels of T cell exhaustion markers PD-1, Tim-3, and LAG-3” value ([4]; flow cytometry, CTLs in HY24409 pancreatic tumors) was “significant reduction”, the “multiplex immunofluorescent staining of CD3, CD8, and granzyme B in pancreatic tumors” value ([4]; mifepristone-treated C57BL/6 mice, HY24409) was “substantial enrichment” and the “mRNA levels of MHC-I components (H-2k, H-2d, and B2m) in tumors” value ([4]; qPCR, HY24409 tumors) was “upregulated”. The “mRNA levels of PD-L1 and known GR-activated target genes (Klf9, Snai2, and Fn1) in tumors” value ([4]; qPCR, HY24409 tumors) was “downregulated”, the “MHC-I and B2M at mRNA and surface protein levels” value (HY19636 cells) was “upregulated” and the “PD-L1 at mRNA and surface protein levels” value (HY19636 cells) was “downregulated”. The body weight ([5]; C57BL/6 mice bearing orthotopic HY24409 tumors, mifepristone 60 mg kg-1) was “without significant loss of body weight”, the “orthotopic pancreatic tumor volume (magnetic resonance imaging) and weight” value ([5]; C57BL/6 mice, HY24409, mifepristone oral gavage 60 mg kg-1, twice every 3 days) was “substantial reductions” and the “tumor growth inhibition upon antibody-mediated depletion of CD8+ T cells” value ([5]; C57BL/6 mice, orthotopic HY24409, mifepristone plus anti-CD8 antibody) was “abolished”. The “reduction in tumor weight at the endpoint” value ([5]; C57BL/6 mice, orthotopic HY24409, vs vehicle or control shRNA) was 67.7% and the cell cycle profile (HY24409 cells [6]) was “neither GR knockdown (FIGS. 11Q-11R) nor mifepristone treatment (FIGS. 11S-11T) altered the cell cycle profile”.
